From article PMC10473160 (Cancer Research Communications, 2023) come the findings set out here.

The structures appear in SMILES notation.

Assay [1] concerns NCI-H1703 cells. Kind of assay: Cell Titer Glo cellular cytotoxicity assay, NCI-H1703. Type of assay: cell-based. Conditions: Homo sapiens, NCI-H1703, 144 h; H1703, 6 days, representative experiment, unit not readable in the picture; read-out: IC50 (Fig. 3B). A general note: In ATP-based viability assays light output follows the ATP content of the culture.
Description: (§1) Cells were seeded in 384-well plates at a density of 300–500 cells per well (depending upon the doubling time for each cell line) with 40 μL of media per well using a multidrop combi cell dispenser (Thermo Fisher Scientific). The cells were incubated at room temperature for 30 minutes to minimize edge effects. The next day, the cells were treated with drugs of interest at various concentrations using a D300e digital dispenser (Tecan). Following treatment, the cells were cultured at 37°C for 6 days. On day 6 after treatment initiation, the plates and Cell Titer Glo (CTG; Promega; PRG9243) were incubated at room temperature (protected from light) for 1 hour to reach equilibrium. After incubation, half of the CTG volume was added to one volume of cell culture medium in each well. The plates were then shaken for 30 seconds to induce cell lysis. The cells were then incubated at room temperature for 12 minutes protected from light to stabilize the luminescence signal. The luminescent cell viability was measured using an EnVision plate reader (PerkinElmer). For cell viability, the data were analyzed using Excel (Microsoft) and GraphPad Prism (RRID:SCR_002798; Dotmatics). […] For synergy, the data were analyzed using Excel, SynergyFinder ([28]), and Combenefit ([29]). […]
Assay [2] has as its system NCI-H1703 cells. Kind of assay: High-content imaging assay (γH2AX, phospho-histone H3, cleaved caspase 3). Conditions: single-agent treatment, 72 hours. Type of assay: cell-based, human. How it is done: Cells were seeded in 96-well plates at a density of 10,000 cells per well with 100 μL of media per well. The cells were cultured overnight. The next day, the cells were treated with doxorubicin (0.006 μmol/L), ZL-2201 (0.1, 0.3, 0.5, 1, and 3.6 μmol/L), and a combination of doxorubicin and ZL-2201 for the indicated times. The cells were washed in PBS and fixed by adding Cytofix/Perm buffer (BD; 554714) at room temperature for 20 minutes. Cells were washed with Perm wash buffer and blocked with Perm wash buffer and 3% FBS at room temperature for 1 hour. The cells were then incubated with primary antibodies against γH2AX-Ser139 (RRID:AB_309864; Millipore; 05-636), pPH3 (Ser10; 6G3; RRID:AB_331748; Cell Signaling Technology; 9706) and cleaved caspase 3 (Asp175; 5A1E; RRID:AB_2070042; Cell Signaling Technology; 9664) overnight at 4°C. Cells were washed the following day and incubated with secondary antibodies (Alexa Fluor 488; Invitrogen; A32723 or A32731 and Alexa Fluor 647; A32733) at room temperature for 45 minutes in the dark. The cells were washed and stained with Hoescht (Thermo Fisher Scientific; H3570) at room temperature for 15 minutes in the dark. Images were obtained and quantified using the ImageXpress Micro Confocal High-Content Imaging System (Molecular Devices). A total of 16 fields were obtained per image for each timepoint and treatment groups.

A further assay relates to A549 cells. Put plainly: CTG combination synergy (Bliss) with ZL-2201, A549. Type of assay: cell-based, human. Conditions: 6 days of combination treatment.
The subject of assay [3] is NCI-H1703 cells. Conditions: NCI-H1703, Bliss, 6 days of combination treatment.
Description: as §1

Description for A549 cells: Cells were seeded in 384-well plates at a density of 300–500 cells per well (depending upon the doubling time for each cell line) with 40 μL of media per well using a multidrop combi cell dispenser (Thermo Fisher Scientific). The cells were incubated at room temperature for 30 minutes to minimize edge effects. The next day, the cells were treated with drugs of interest at various concentrations using a D300e digital dispenser (Tecan). Following treatment, the cells were cultured at 37°C for 6 days. On day 6 after treatment initiation, the plates and Cell Titer Glo (CTG; Promega; PRG9243) were incubated at room temperature (protected from light) for 1 hour to reach equilibrium. After incubation, half of the CTG volume was added to one volume of cell culture medium in each well. The plates were then shaken for 30 seconds to induce cell lysis. […] The luminescent cell viability was measured using an EnVision plate reader (PerkinElmer). For cell viability, the data were analyzed using Excel (Microsoft) and GraphPad Prism (RRID:SCR_002798; Dotmatics). The data were first transformed to a log scale on the X-axis, then transformed values were normalized, and finally, normalized values were fitted using a nonlinear regression curve fit. For synergy, the data were analyzed using Excel, SynergyFinder ([28]), and Combenefit ([29]). […]

`COc1cccc2c1C(=O)c1c(O)c3c(c(O)c1C2=O)C[C@@](O)(C(=O)CO)C[C@@H]3O[C@H]1C[C@H](N)[C@H](O)[C@H](C)O1` [doxorubicin]: the IC50 – broadly, the concentration that inhibits the measured activity by half – with NCI-H1703 cells [1] is 4 nM. The “cleaved caspase 3 (apoptosis) level” value with NCI-H1703 cells [2] was “did not alter”. In the assay with NCI-H1703 cells [2], the “phospho-histone H3 (mitotic index) level” value was “did not alter”. Also, the “synergy score in combination with ZL-2201” value in the assay on A549 cells and in the assay with NCI-H1703 cells [3] was > 30 each time.
